Data published in US20050074408A1, “Keto cannabinoids with therapeutic indications” (University of Connecticut, priority 2002, published 2005).
Like-named read-outs stand apart in the source and are kept apart here.

How the values were obtained:
CB2 receptor = biological target: T1, CB2 receptor (Mus musculus, UniProt P47936); assay: CB2 receptor binding assay ([3H] CP-55,940 displacement, mouse spleen membranes)
T1 construct: membranes were prepared from frozen mouse spleen; from tissue; host or cells: mouse spleen
T1 sequence (P47936 whole entry): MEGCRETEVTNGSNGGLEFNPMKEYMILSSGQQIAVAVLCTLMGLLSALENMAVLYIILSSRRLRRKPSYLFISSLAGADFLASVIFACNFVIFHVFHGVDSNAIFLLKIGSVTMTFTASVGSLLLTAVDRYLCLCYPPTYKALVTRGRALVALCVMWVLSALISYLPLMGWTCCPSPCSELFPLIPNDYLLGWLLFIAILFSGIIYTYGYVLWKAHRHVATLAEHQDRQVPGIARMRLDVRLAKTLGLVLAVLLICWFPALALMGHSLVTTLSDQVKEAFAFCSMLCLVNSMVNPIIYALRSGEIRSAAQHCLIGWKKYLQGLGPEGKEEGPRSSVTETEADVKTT
Description: (§1) Membranes, previously frozen at −80° C., were thawed on ice. To the stirred suspension was added three volumes of TME (25 mM Tris-HCl buffer, 5 mM MgCl2 and 1 mM EDTA) at a pH 7.4. The suspension was incubated at 4° C. for 30 min. At the end of the incubation, the membranes were pelleted and washed three times with TME.
The treated membranes were subsequently used in the binding assay described below. Approximately 30 μg of membranes were incubated in silanized 96-well microtiter plate with TME containing 0.1% essentially fatty acid-free bovine serum albumin (BSA), 0.8 nM [^3H] […] Radioactivity was detected using MicroScint 20 scintillation cocktail added directly to the dried filterplates, and the filterplates were counted using a Packard Instruments Top-Count. […] Data collected from three independent experiments performed with duplicate determinations was normalized between 100% and 0% specific binding for [^3H] […] The normalized data was analyzed using a 4-parameter nonlinear logistic equation to yield IC50 values.
Silanized centrifuge tubes were used throughout to minimize receptor loss due to adsorption. The CB2 binding assay was conducted in the same manner as for the CB1 binding assay. The binding affinities (Ki) were also expressed in nanomoles (nM).

CB1 cannabinoid receptor = biological target: T2, CB1 cannabinoid receptor (Rattus norvegicus, UniProt P20272); assay: CB1 receptor binding assay ([3H] CP-55,940 displacement, rat forebrain membranes); details: 0.8 nM [3H] CP-55,940
T2 construct: membranes were prepared from rat forebrain membranes; from tissue; host or cells: rat forebrain
T2 sequence (P20272 whole entry): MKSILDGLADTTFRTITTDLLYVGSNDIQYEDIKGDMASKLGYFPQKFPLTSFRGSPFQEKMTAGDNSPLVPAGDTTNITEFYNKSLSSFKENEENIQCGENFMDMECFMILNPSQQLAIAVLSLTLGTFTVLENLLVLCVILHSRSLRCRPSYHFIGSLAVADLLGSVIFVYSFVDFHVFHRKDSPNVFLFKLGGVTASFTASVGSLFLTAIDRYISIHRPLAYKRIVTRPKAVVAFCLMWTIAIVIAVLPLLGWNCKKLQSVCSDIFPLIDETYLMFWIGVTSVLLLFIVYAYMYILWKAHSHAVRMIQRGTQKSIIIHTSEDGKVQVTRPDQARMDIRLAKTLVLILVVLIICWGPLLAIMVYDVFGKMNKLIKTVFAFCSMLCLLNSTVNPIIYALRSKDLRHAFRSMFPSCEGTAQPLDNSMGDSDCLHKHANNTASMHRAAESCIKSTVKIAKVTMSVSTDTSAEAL
Description: Some of the inventive compounds were tested for CB2 receptor binding affinity and for CB1 receptor affinity (to determine selectivity for the CB2 receptor). As used herein, “binding affinity” is represented by the Ki value which is the inhibition constant correlated with the concentration of an analog required to occupy the 50% of the total number (Bmax) of the receptors. The lower the Ki value the higher the binding affinity. […] For the CB1 receptor binding studies, membranes were prepared from rat forebrain membranes according to the procedure of P. R. Dodd et al, A Rapid Method for Preparing Synaptosomes: Comparison with Alternative Procedures, Brain Res., 107-118 (1981). The binding of the novel analogues to the CB1 cannabinoid receptor was assessed as described in W. A. Devane et al, Determination and Characterization of a Cannabinoid Receptor in a Rat Brain, Mol. Pharmacol., 34, 605-613 (1988) and A. Charalambous et al, 5′-azido Δ^8−THC: A Novel Photoaffinity Label for the Cannabinoid Receptor, J. Med. Chem., 35, 3076-3079 (1992) with the following changes. The above articles are incorporated by reference herein.
as §1
The treated membranes were subsequently used in the binding assay described below. Approximately 30 μg of membranes were incubated in silanized 96-well microtiter plate with TME containing 0.1% essentially fatty acid-free bovine serum albumin (BSA), 0.8 nM [^3H] CP-55,940, and various concentrations of test materials in a final volume of 200 μL. The assays were incubated for 1 hour at 30° C. and then immediately filtered using Packard Filtermate 196 harvester and Whatman GF/C filterplates and washed with wash buffer (TME) containing 0.5% BSA. Radioactivity was detected using MicroScint 20 scintillation cocktail added directly to the dried filterplates, and the filterplates were counted using a Packard Instruments Top-Count. Nonspecific binding was assessed using 100 nM CP-55,940. Data collected from three independent experiments performed with duplicate determinations was normalized between 100% and 0% specific binding for [^3H] CP-55,940, determined using buffer and 100 nM CP-55,940. The normalized data was analyzed using a 4-parameter nonlinear logistic equation to yield IC50 values. Data from at least two independent experiments performed in duplicate was used to calculate IC50 values which were converted to Ki values using the assumptions of Cheng et al, Relationship Between the Inhibition Constant (Ki) and the concentration of Inhibitor which causes 50% Inhibition (IC50) of an Enzymatic Reaction, Biochem. Pharmacol., 22, 3099-3102, (1973), which is incorporated by reference herein.

[1] = Fluorescence assay protocol (absorption, excitation and emission scans in MeOH); type: physicochemical
Description: The fluorescent properties of some of the inventive compounds were examined using the following fluorescence assay protocol. All samples were processed in the same manner and diluted in JT BAKER PHOTREX Grade MeOH. Cuvettes and flasks were cleaned and rinsed with distilled water then rinsed twice with MeOH. Samples were kept in the freezer prior to testing. NSG Precision Quartz Cuvettes were used for absorption and spectral scans. Samples were diluted with methanol to a final volume of 5 mL. A 100× dilution of the samples in MeOH was performed. Absorption spectra were run using a Beckman DU-40 Spectrophotometer. Guided by absorption spectra, excitation and emission scans were run using an ISA Fluoromax-2 Fluorometer.
500 μL of MeOH was added into sample vial containing about 1 mg of testing compound, and aspirated with pipette to mix. 500 μL sample aliquot was then placed into 5 mL volumetric flask and brought up to volume with MeOH, and 5 mL was used as stock. Serial dilutions in 50 mL volumetric flasks were performed until final concentration of 100× reached. Dilution protocol was repeated for each sample. After dilution, 2.5 mL of sample was placed into a 3 mL Quartz cuvette and the cuvette was placed in ISA Fluoromax-2 Fluorometer. Absorption scan was run in Beckman DU-40 Spectrophotometer. Excitation and emission scans were run and spectral data were collected.

[2] = mouse spleen membranes, [3H] CP-55,940, read-out: CB2 Ki

SMILES | Ki (CB2 receptor; [2]) | Ki (CB1 cannabinoid receptor) | Absorbance Peak [1] | Fluorescence Emission Peak [1] | Fluorescence Excitation Peak [1] | Mol Extinction [1] | Stoke's Shift [1] | Ki (CB2 receptor)
CCCCCCCN(C)c1cc(OC)c2c(c1)oc(=O)c1ccc(C(F)(F)F)cc12 [Compound 12] | 1480 nM | 6360 nM |  |  |  |  |  | 
CCCCCCc1cc2c3c(c(=O)oc2cc1O)CCC(C)C3 (centres unmarked) [Compound 1] | 5630 nM | 8610 nM |  |  |  |  |  | 
CCCCCCC(C)Oc1cc(O)c2c3c(c(=O)oc2c1)CCC(C)C3 (centres unmarked) [Compound 3] | 6 nM | 30 nM |  |  |  |  |  | 
CCCCCCC(C)Oc1cc(OC)c2c3c(c(=O)oc2c1)CCC(=O)C3 (centres unmarked) [Compound 18] | 355 nM | 8430 nM |  |  |  |  |  | 
CCCCCCCN(C)c1cc(O)c2c(oc(=O)c3ccc(C)cc32)c1Br [Compound 10] | 0.7 nM | 9 nM |  |  |  |  |  | 
CCCCCCCN(C)c1cc(O)c2c3c(c(=O)oc2c1)CCC(C)C3 (centres unmarked) [Compound 6] | 128 nM | 122 nM | 364 nm | 460 nm | 367 nm | 18000 mol⁻¹ cm⁻¹ L⁻¹ | 93 nm | 
CCCCCC(C)Oc1cc(O)c2c3c(c(=O)oc2c1)CCC(C)C3 (centres unmarked) [Compound 2] | 25 nM | 150 nM | 320 nm | 423 nm | 326 nm | 13900 mol⁻¹ cm⁻¹ L⁻¹ | 97 nm | 
CCCCCCN(C)c1cc(O)c2c3c(c(=O)oc2c1)CCC(C)C3 (centres unmarked) [Compound 5] | 1660 nM | 2000 nM | 364 nm | 460 nm | 368 nm | 18600 mol⁻¹ cm⁻¹ L⁻¹ | 92 nm | 
CCCCCCCN(C)c1cc(O)c2c(c1)oc(=O)c1ccc(C(F)(F)F)cc12 [Compound 11] | 1680 nM | 6680 nM |  |  |  |  |  | 
CCCCCCCN(C)c1cc2oc(=O)c3ccc(C)cc3c2c(O)c1Br [Compound 9] | 3 nM | 50 nM |  |  |  |  |  | 
CCCCCCCN(C)c1cc(O)c2c(c1)oc(=O)c1ccc(O)cc12 [Compound 15] | 23 nM | 990 nM | 318 nm | 502 nm | 320 nm | 23400 mol⁻¹ cm⁻¹ L⁻¹ | 182 nm | 
CCCCCCC(C)(C)c1cc(O)c2c(c1)oc(=O)c1ccccc12 [Compound 47] | 6.6 nM | 4790 nM |  |  |  |  |  | 
CCCCCCCC(C)(C)c1cc(OC)c2c3c(c(=O)oc2c1)CCC(C)C3 (centres unmarked) [Compound 32] |  |  | 327 nm | 390 nm | 330 nm |  | 60 nm | 
CCCCCCC(C)Oc1cc(OC(=O)CCCCN2CCOCC2)c2c3c(c(=O)oc2c1)CCC(=O)C3 (centres unmarked) [Compound 20] | 0.6 nM | 6 nM |  |  |  |  |  | 
CCCCCCC(C)(C)c1cc(OC)c2c(c1)oc(=O)c1ccncc12 [Compound 49] | 35.4 nM | 3760 nM |  |  |  |  |  | 
CCCCCCCN(C)c1cc(O)c2c(c1)oc(=O)c1ccc(C)cc12 [Compound 13] | 16 nM | 140 nM | 316 nm | 519 nm | 319 nm | 22700 mol⁻¹ cm⁻¹ L⁻¹ | 200 nm | 
CCCCCCC(C)(C)c1cc(O)c2c(c1)oc(=O)c1cc(O)c(O)cc12 [Compound 48] | 101 nM | 1950 nM |  |  |  |  |  | 
CCCCCCCN(C)c1cc(OC)c2c(c1)oc(=O)c1ccc(C)cc12 [Compound 14] | 90 nM | 1260 nM | 405 nm | 465 nm | 405 nm | 11400 mol⁻¹ cm⁻¹ L⁻¹ | 60 nm | 
CCCCCCN(C)c1cc(O)cc2oc(=O)c3c(c12)CC(C)CC3 (centres unmarked) [Compound 7] | 288 nM | 160 nM |  |  |  |  |  | 
CCCCCCCC(C)(C)c1cc(OC)c2c3c(c(=O)oc2c1)CCC(=O)C3 [Compound 19] | 1 nM | 40 nM |  |  |  |  |  | 
CCCCCCCN(C)c1cc(O)cc2oc(=O)c3c(c12)CC(C)CC3 (centres unmarked) [Compound 8] |  | 2580 nM |  |  |  |  |  | 824 nM
CCCCCCC(C)Oc1cc(O)c2c3c(c(=O)oc2c1)CCC(=O)C3 (centres unmarked) [Compound 17] |  | 304 nM |  |  |  |  |  | 0.4 nM
CCCCCCCN(C)c1cc(O)c2c(c1)oc(=O)c1ccc(OC)cc12 [Compound 16] |  | 1300 nM | 317 nm | 498 nm | 321 nm | 21800 mol⁻¹ cm⁻¹ L⁻¹ | 177 nm | 148 nM
